Assay results reported in patent publication US20080132505A1 (Glaxo Group Limited, priority 2004, published 2008).
Read-outs that look alike come from different tables or passages of the source.

Target: human cannabinoid CB2 receptor (Homo sapiens, UniProt P34972)
Assay: Cannabinoid CB2 receptor agonist activity (yeast reporter assay, FDGlu fluorescence)
Format: cell-based
Conditions: for Emax: read-out: efficacy value (Emax relative to HU210) at the cloned human cannabinoid CB2 receptor
Procedure, shortened: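 S. cerevisiae MMY23 expressing human CB2 with a Gpa1/Gαi3 chimeric G-protein, grown 24 h at 30 °C with agonist (1% DMSO) in selective media containing 10 mM 3-aminotriazole and FDGlu, pH 7.0. Fluorescein fluorescence (485/535 nm) fitted by four-parameter curve; Emax and EMR relative to HU210.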

[1] = EC50 value at the cloned human cannabinoid CB2 receptor

Sequence of human cannabinoid CB2 receptor (P34972 whole entry): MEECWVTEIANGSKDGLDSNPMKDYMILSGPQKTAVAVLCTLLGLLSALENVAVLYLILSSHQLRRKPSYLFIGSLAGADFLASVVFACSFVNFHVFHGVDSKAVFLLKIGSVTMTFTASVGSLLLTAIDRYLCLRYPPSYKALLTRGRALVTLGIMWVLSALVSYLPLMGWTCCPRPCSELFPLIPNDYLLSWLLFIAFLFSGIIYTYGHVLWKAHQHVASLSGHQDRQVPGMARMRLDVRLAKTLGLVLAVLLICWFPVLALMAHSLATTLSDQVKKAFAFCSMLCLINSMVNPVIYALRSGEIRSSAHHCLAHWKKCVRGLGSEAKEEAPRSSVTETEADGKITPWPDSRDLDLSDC

Row | EC50 (read-out: EC50 value at the cloned human cannabinoid CB2 receptor) | SMILES | EC50 [1] | Emax
1 |  | O=C(NC1CC1)c1cnc(Nc2cccc(Cl)c2)nc1C(F)(F)F [Example 209, 2-(3-Chlorophenylamino)-4-trifluoromethyl-pyrimidine-5-carboxylic acid cyclopropylamide] | 20 to 300 nM | > 50%
2 |  | CN(CC1CCOCC1)C(=O)c1cnc(Nc2cccc(Cl)c2)nc1C(F)(F)F [Example 211, 2-(3-Chlorophenylamino)-4-trifluoromethyl-pyrimidine-5-carboxylic acid methyl-(tetrahydro-pyran-4-ylmethyl)-amide] | 20 to 300 nM | > 50%
3 | 20 to 300 nM | O=C(NCC1CCOCC1)c1cnc(Nc2cccc(Cl)c2F)nc1C(F)(F)F [Example 212, 2-(2-Fluoro-3-chloro-phenylamino)-4-trifluoromethyl-pyrimidine-5-carboxylic acid (tetrahydro-pyran-4-ylmethyl)-amide] |  | 
4 |  | O=C(NCC1CCOCC1)c1cnc(Nc2cc(Cl)ccc2F)nc1C(F)(F)F [Example 213, 2-(2-Fluoro-5-chloro-phenylamino)-4-trifluoromethyl-pyrimidine-5-carboxylic acid (tetrahydro-pyran-4-ylmethyl)-amide] | 20 to 300 nM | > 50%
5 |  | O=C(NCC1CCOCC1)c1cnc(Nc2cc(F)cc(F)c2)nc1C(F)(F)F [Example 214, 2-(3,5-Difluorophenylamino)-4-trifluoromethyl-pyrimidine-5-carboxylic acid (tetrahydro-pyran-4-ylmethyl)-amide] | 20 to 300 nM | > 50%
6 |  | O=C(NCC1CCOCC1)c1cnc(Nc2ccc(F)c(Cl)c2)nc1C(F)(F)F [Example 215, 2-(4-Fluoro-3-chloro-phenylamino)-4-trifluoromethyl-pyrimidine-5-carboxylic acid (tetrahydro-pyran-4-ylmethyl)-amide] | 20 to 300 nM | > 50%
7 |  | O=C(NCC1CCOCC1)c1cnc(Nc2ccc(OC(F)(F)F)c(Cl)c2)nc1C(F)(F)F [Example 216, 2-(4-Trifluoromethoxy-3-chloro-phenylamino)-4-trifluoromethyl-pyrimidine-5-carboxylic acid (tetrahydro-pyran-4-ylmethyl)-amide] | 20 to 300 nM | > 50%
8 |  | O=C(NCC1CCOCC1)c1cnc(Nc2ccc(C(F)(F)F)c(F)c2)nc1C(F)(F)F [Example 218, 2-(4-Trifluoromethyl-3-fluoro-phenylamino)-4-trifluoromethyl-pyrimidine-5-carboxylic acid (tetrahydro-pyran-4-ylmethyl)-amide] | 20 to 300 nM | > 50%
9 |  | N#Cc1ccc(Nc2ncc(C(=O)NCC3CCCC3)c(C(F)(F)F)n2)cc1Cl [Example 219, 2-(4-Cyano-3-chloro-phenylamino)-4-trifluoromethyl-pyrimidine-5-carboxylic acid cyclopentylmethyl-amide] | 20 to 300 nM | > 50%
10 |  | O=C(NC1CCS(=O)(=O)CC1)c1cnc(Nc2ccc(Cl)cc2Cl)nc1C(F)(F)F [Example 220, 2-(2,4-Dichloro-phenylamino)-4-trifluoromethyl-pyrimidine-5-carboxylic acid (1,1-dioxo-hexahydro-1l^6-thiopyran-4-yl)-amide] | 20 to 300 nM | > 50%
11 |  | O=C(NCC1CCCCC1)c1cnc(Nc2ccc(F)cc2F)nc1C(F)(F)F [Example 221, 2-(2,4-Difluoro-phenylamino)-4-trifluoromethyl-pyrimidine-5-carboxylic acid cyclohexylmethyl-amide] | 20 to 300 nM | > 50%
12 |  | O=C(NCC1CCCCC1)c1cnc(Nc2ccc(F)cc2Cl)nc1C(F)(F)F [Example 222, 2-(2-Chloro-4-fluoro-phenylamino)-4-trifluoromethyl-pyrimidine-5-carboxylic acid cyclohexylmethyl-amide] | 20 to 300 nM | > 50%
13 |  | O=C(NCC1CCC1)c1cnc(Nc2ccc(F)cc2F)nc1C(F)(F)F [Example 223, 2-(2,4-Difluoro-phenylamino)-4-trifluoromethyl-pyrimidine-5-carboxylic acid cyclobutylmethyl-amide] | 20 to 300 nM | > 50%
14 |  | O=C(NCC1CCC1)c1cnc(Nc2ccc(F)cc2Cl)nc1C(F)(F)F [Example 224, 2-(2-Chloro-4-fluoro-phenylamino)-4-trifluoromethyl-pyrimidine-5-carboxylic acid cyclobutylmethyl-amide] | 20 to 300 nM | > 50%
15 |  | O=C(NCC1CCCCC1)c1cnc(Nc2ccc(Br)cc2Cl)nc1C(F)(F)F [Example 225, 2-(2-Chloro-4-bromo-phenylamino)-4-trifluoromethyl-pyrimidine-5-carboxylic acid cyclohexylmethyl-amide] | 20 to 300 nM | > 50%
16 |  | O=C(NCC1CCCCC1)c1cnc(Nc2ccc(Cl)cc2F)nc1C(F)(F)F [Example 226, 2-(2-Fluoro-4-chloro-phenylamino)-4-trifluoromethyl-pyrimidine-5-carboxylic acid cyclohexylmethyl-amide] | 20 to 300 nM | > 50%
17 |  | O=C(NCC1CCC1)c1cnc(Nc2ccc(Br)cc2Cl)nc1C(F)(F)F [Example 227, 2-(2-Chloro-4-bromo-phenylamino)-4-trifluoromethyl-pyrimidine-5-carboxylic acid cyclobutylmethyl-amide] | 20 to 300 nM | > 50%
18 |  | O=C(NCC1CCC1)c1cnc(Nc2ccc(Br)cc2F)nc1C(F)(F)F [Example 229, 2-(2-Fluoro-4-bromo-phenylamino)-4-trifluoromethyl-pyrimidine-5-carboxylic acid cyclobutylmethyl-amide] | 20 to 300 nM | > 50%
19 |  | O=C(NCC1CCC1)c1cnc(Nc2ccc(Cl)cc2Br)nc1C(F)(F)F [Example 230, 2-(2-Bromo-4-chloro-phenylamino)-4-trifluoromethyl-pyrimidine-5-carboxylic acid cyclobutylmethyl-amide] | 20 to 300 nM | > 50%
20 |  | O=C(NCC1CCCCC1)c1cnc(Nc2ccc(Br)cc2F)nc1C(F)(F)F [Example 231, 2-(2-Fluoro-4-bromo-phenylamino)-4-trifluoromethyl-pyrimidine-5-carboxylic acid cyclohexylmethyl-amide] | 20 to 300 nM | > 50%
21 |  | O=C(NCC1CCOCC1)c1cnc(Nc2ccc(Br)cc2F)nc1C(F)(F)F [Example 232, 2-(2-Fluoro-4-bromo-phenylamino)-4-trifluoromethyl-pyrimidine-5-carboxylic acid (tetrahydro-pyran-4-ylmethyl)-amide] | 20 to 300 nM | > 50%
22 |  | O=C(NCC1CCOCC1)c1cnc(Nc2ccc(F)cc2Cl)nc1C(F)(F)F [Example 233, 2-(2-Chloro-4-fluoro-phenylamino)-4-trifluoromethyl-pyrimidine-5-carboxylic acid (tetrahydro-pyran-4-ylmethyl)-amide] | 20 to 300 nM | > 50%
23 |  | O=C(NCC1CCOCC1)c1cnc(Nc2ccc(Br)cc2Cl)nc1C(F)(F)F [Example 234, 2-(2-Chloro-4-bromo-phenylamino)-4-trifluoromethyl-pyrimidine-5-carboxylic acid (tetrahydro-pyran-4-ylmethyl)-amide] | 20 to 300 nM | > 50%
24 |  | N#Cc1ccc(Nc2ncc(C(=O)NCC3CCOCC3)c(C(F)(F)F)n2)c(Cl)c1 [Example 235, 2-(2-Chloro-4-cyano-phenylamino)-4-trifluoromethyl-pyrimidine-5-carboxylic acid (tetrahydro-pyran-4-ylmethyl)-amide] | 20 to 300 nM | > 50%
